The values that follow come from patent US20140148443A1, “Novel Imidazolines as dual inhibitors of MDM2 and MDMX” (priority 2012, published 2014).

In assay [1] the target is T1, GST-tagged MDMX (Homo sapiens, UniProt O15151).
T1 sequence (O15151 1-490): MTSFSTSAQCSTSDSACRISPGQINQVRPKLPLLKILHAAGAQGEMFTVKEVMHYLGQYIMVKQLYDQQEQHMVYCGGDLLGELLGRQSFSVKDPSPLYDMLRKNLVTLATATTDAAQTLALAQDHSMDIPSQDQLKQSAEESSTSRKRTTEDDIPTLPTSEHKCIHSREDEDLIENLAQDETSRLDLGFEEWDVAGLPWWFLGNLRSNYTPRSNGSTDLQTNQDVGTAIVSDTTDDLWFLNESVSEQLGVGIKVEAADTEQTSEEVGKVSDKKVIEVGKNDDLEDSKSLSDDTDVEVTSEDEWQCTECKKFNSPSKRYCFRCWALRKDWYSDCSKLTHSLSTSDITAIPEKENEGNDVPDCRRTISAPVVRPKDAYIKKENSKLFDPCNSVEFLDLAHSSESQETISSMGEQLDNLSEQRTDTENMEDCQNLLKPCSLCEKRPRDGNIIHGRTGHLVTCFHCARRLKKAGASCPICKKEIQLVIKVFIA
Put plainly: HTRF binding assay of GST-tagged MDMX to p53 peptide.

The target in assay [2] is recombinant GST-tagged MDM2 (Homo sapiens, UniProt Q00987). Put plainly: HTRF assay of interaction between p53 peptide and GST-tagged MDM2. The note with it: inhibition of GST-MDM2 (160 ng/ml) binding to biotinylated p53-peptide. How it is done:
The ability of a test compound to inhibit the interaction between p53 and MDM2 protein was measured by an HTRF (homogeneous time-resolved fluorescence) assay in which recombinant GST-tagged MDM2 binds to a peptide that resembles the MDM2-interacting region of p53 Aca-[…]-OH hereinafter p53-peptide). Binding of GST-MDM2 protein and p53-peptide (biotinylated on its N-terminal end) is registered by the FRET (fluorescence resonance energy transfer) between Europium (Eu)-labeled anti-GST antibody and streptavidin-conjugated Allophycocyanin (APC).
The test was performed in black flat-bottom 384-well plates (Costar) in a total volume of 40 uL containing: 90 nM biotinylated peptide, 160 ng/ml GST-MDM2, 20 nM streptavidin-APC (PerkinElmerWallac), 2 nM Eu-labeled anti-GST-antibody (PerkinElmerWallac), 0.02% bovine serum albumin (BSA), 1 mM dithiothreitol (DTT) and 20 mM […] (TBS) buffer as follows: add 10 uL of GST-MDM2 (640 ng/ml working solution) in reaction buffer to each well. Add 10 uL diluted compounds (1:5 dilution in reaction buffer) to each well, mix by shaking. Add 20 uL biotinylated p53 peptide (180 nM working solution) in reaction buffer to each well and mix on shaker. Incubate at 37° C. for 1 h. Add […] streptavidin-APC and Eu-anti-GST antibody mixture (6 nM Eu-anti-GST and 60 nM streptavidin-APC working solution) in TBS buffer with 0.02% BSA, shake at room temperature for 30 minutes and read using a TRF-capable plate reader at 665 and 615 nm (Victor 5, Perkin ElmerWallac). If not specified, the reagents were purchased from Sigma Chemical Co.

Structures are written as SMILES.

recombinant GST-tagged MDM2, sequence (Q00987 whole entry): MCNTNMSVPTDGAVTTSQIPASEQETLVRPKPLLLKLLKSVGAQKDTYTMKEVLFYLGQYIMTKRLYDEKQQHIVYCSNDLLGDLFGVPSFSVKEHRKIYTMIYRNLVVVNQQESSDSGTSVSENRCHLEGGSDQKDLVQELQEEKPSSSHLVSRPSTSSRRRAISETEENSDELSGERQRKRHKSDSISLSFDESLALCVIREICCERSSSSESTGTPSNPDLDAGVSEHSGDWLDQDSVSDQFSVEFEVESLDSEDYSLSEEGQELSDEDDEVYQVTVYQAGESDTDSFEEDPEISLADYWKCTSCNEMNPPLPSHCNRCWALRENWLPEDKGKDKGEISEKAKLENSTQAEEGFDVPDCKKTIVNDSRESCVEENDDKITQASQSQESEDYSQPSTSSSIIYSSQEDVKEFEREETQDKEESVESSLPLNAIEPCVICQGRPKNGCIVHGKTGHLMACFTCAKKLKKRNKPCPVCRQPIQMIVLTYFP

Turning to `CCOc1cc(Cl)c(S(C)(=O)=O)cc1C1=N[C@@](C)(c2ccc(Cl)cc2)[C@@](C)(c2ccc(Cl)cc2)N1C(=O)N1CCC(CS(C)(=O)=O)CC1` [Example 9, [(4S,5R)-2-(4-Chloro-2-ethoxy-5-methanesulfonyl-phenyl)-4,5-bis-(4-chloro-phenyl)-4,5-dimethyl-4,5-dihydro-imidazol-1-yl]-(4-methanesulfonylmethyl-piperidin-1-yl)-methanone], the half-maximal inhibitory concentration (IC50) in assay [1] was found to be 1700 nM; in assay [2], 5.8 nM.
In the same order, the values of `CCNC(=O)NC1CCN(C(=O)N2C(c3cc(S(C)(=O)=O)c(Cl)cc3OCC)=N[C@@](C)(c3ccc(Cl)cc3)[C@@]2(C)c2ccc(Cl)cc2)CC1` [Example 10, 1-{1-[(4S,5R)-2-(4-Chloro-2-ethoxy-5-methanesulfonyl-phenyl)-4,5-bis-(4-chloro-phenyl)-4,5-dimethyl-4,5-dihydro-imidazole-1-carbonyl]-piperidin-4-yl}-3-ethyl-urea] are 974 nM and 4.2 nM.
For `CCOc1cc(Cl)c(S(C)(=O)=O)cc1C1=N[C@@](C)(c2ccc(Cl)cc2)[C@@](C)(c2ccc(Cl)cc2)N1C(=O)N1CCC(NC(=O)NC(C)C)CC1` [Example 11, 1-{1-[(4S,5R)-2-(4-Chloro-2-ethoxy-5-methanesulfonyl-phenyl)-4,5-bis-(4-chloro-phenyl)-4,5-dimethyl-4,5-dihydro-imidazole-1-carbonyl]-piperidin-4-yl}-3-isopropyl-urea], the IC50 is 1270 nM in assay [1] and 4.5 nM in assay [2].
In the same order, the values of `CCOc1cc(Cl)c(S(=O)(=O)CC)cc1C1=N[C@@](C)(c2ccc(Cl)cc2)[C@@](C)(c2ccc(Cl)cc2)N1C(=O)N1CCN(CCCS(C)(=O)=O)CC1` [Example 12, [(4S,5R)-2-(4-Chloro-5-ethanesulfonyl-2-ethoxy-phenyl)-4,5-bis-(4-chloro-phenyl)-4,5-dimethyl-4,5-dihydro-imidazol-1-yl]-[4-(3-methanesulfonyl-propyl)-piperazin-1-yl]-methanone] are 989 nM and 5.5 nM.
In the same order, the values of `CCOc1cc(Cl)c(S(C)(=O)=O)cc1C1=N[C@@](C)(c2ccc(Cl)cc2)[C@@](C)(c2ccc(Cl)cc2)N1C(=O)N1CCC(CCS(C)(=O)=O)CC1` [Example 13, [(4S,5R)-2-(4-Chloro-2-ethoxy-5-methanesulfonyl-phenyl)-4,5-bis-(4-chloro-phenyl)-4,5-dimethyl-4,5-dihydro-imidazol-1-yl]-[4-(2-methanesulfonyl-ethyl)-piperidin-1-yl]-methanone] are 1370 nM and 6.1 nM.
The like results for `CCOc1cc(Cl)c(S(C)(=O)=O)cc1C1=N[C@@](C)(c2ccc(Cl)cc2)[C@@](C)(c2ccc(Cl)cc2)N1C(=O)N1CCN(CCCS(=O)(=O)CC)CC1` [Example 14, [(4S,5R)-2-(4-Chloro-2-ethoxy-5-methanesulfonyl-phenyl)-4,5-bis-(4-chloro-phenyl)-4,5-dimethyl-4,5-dihydro-imidazol-1-yl]-[4-(3-ethanesulfonyl-propyl)-piperazin-1-yl]-methanone] were, in that order, 1460 nM and 4.7 nM.
`CCOc1cc(Cl)c(S(C)(=O)=O)cc1C1=N[C@@](C)(c2ccc(Cl)cc2)[C@@](C)(c2ccc(Cl)cc2)N1C(=O)N1CCN(CC(=O)N(CCOC)CCOC)CC1` [Example 15, 2-{4-[(4S,5R)-2-(4-Chloro-2-ethoxy-5-methanesulfonyl-phenyl)-4,5-bis-(4-chloro-phenyl)-4,5-dimethyl-4,5-dihydro-imidazole-1-carbonyl]-piperazin-1-yl}-N,N-bis-(2-methoxy-ethyl)-acetamide]: the values for the IC50 in assay [1] and in assay [2] were 1140 nM and 5.5 nM, respectively.
The like results for `CCOCCN(CCOCC)C(=O)CN1CCN(C(=O)N2C(c3cc(S(C)(=O)=O)c(Cl)cc3OCC)=N[C@@](C)(c3ccc(Cl)cc3)[C@@]2(C)c2ccc(Cl)cc2)CC1` [Example 16, 2-{4-[(4S,5R)-2-(4-Chloro-2-ethoxy-5-methanesulfonyl-phenyl)-4,5-bis-(4-chloro-phenyl)-4,5-dimethyl-4,5-dihydro-imidazole-1-carbonyl]-piperazin-1-yl}-N,N-bis-(2-ethoxy-ethyl)-acetamide] were, in that order, 849 nM and 5 nM.
`CCOc1cc(Cl)c(S(C)(=O)=O)cc1C1=N[C@@](C)(c2ccc(Cl)cc2)[C@@](C)(c2ccc(Cl)cc2)N1C(=O)N1CCN(CC(=O)N2CCOCC2)CC1` [Example 17, 2-{4-[(4S,5R)-2-(4-Chloro-2-ethoxy-5-methanesulfonyl-phenyl)-4,5-bis-(4-chloro-phenyl)-4,5-dimethyl-4,5-dihydro-imidazole-1-carbonyl]-piperazin-1-yl}-1-morpholin-4-yl-ethanone]: the results for the IC50 in assay [1] and in assay [2] were 1340 nM and 5.2 nM, respectively.
As to `CCOc1cc(Cl)c(S(C)(=O)=O)cc1C1=N[C@@](C)(c2ccc(Cl)cc2)[C@@](C)(c2ccc(Cl)cc2)N1C(=O)N1CCN(CCS(C)(=O)=O)CC1` [Example 18, [(4S,5R)-2-(4-Chloro-2-ethoxy-5-methanesulfonyl-phenyl)-4,5-bis-(4-chloro-phenyl)-4,5-dimethyl-4,5-dihydro-imidazol-1-yl]-[4-(2-methanesulfonyl-ethyl)-piperazin-1-yl]-methanone], the IC50 in assay [1] worked out at 1430 nM; in assay [2], 6 nM.
For `CCOc1cc(Cl)c(S(C)(=O)=O)cc1C1=N[C@@](C)(c2ccc(Cl)cc2)[C@@](C)(c2ccc(Cl)cc2)N1C(=O)N1CCC2(CCNCC2)CC1` [Example 19, [(4S,5R)-2-(4-Chloro-2-ethoxy-5-methanesulfonyl-phenyl)-4,5-bis-(4-chloro-phenyl)-4,5-dimethyl-4,5-dihydro-imidazol-1-yl]-(3,9-diaza-spiro[5.5]undec-3-yl)-methanone], the IC50 in assay [1] stood at 3770 nM; in assay [2], 12.5 nM.
In the same order, the values of `CCOc1cc(Cl)c(S(C)(=O)=O)cc1C1=N[C@@](C)(c2ccc(Cl)cc2)[C@@](C)(c2ccc(Cl)cc2)N1C(=O)N1CCN(C2CCS(=O)(=O)C2)CC1` (stereo partly drawn) [Example 20, [(4S,5R)-2-(4-Chloro-2-ethoxy-5-methanesulfonyl-phenyl)-4,5-bis-(4-chloro-phenyl)-4,5-dimethyl-4,5-dihydro-imidazol-1-yl]-[4-(1,1-dioxo-tetrahydro-thiophen-3-yl)-piperazin-1-yl]-methanone] are 3650 nM and 5.4 nM.
The like results for `CCOc1cc(Cl)c(S(C)(=O)=O)cc1C1=N[C@@](C)(c2ccc(Cl)cc2)[C@@](C)(c2ccc(Cl)cc2)N1C(=O)N1CCC2(CCN(CC(N)=O)CC2)CC1` [Example 21, 2-{9-[(4S,5R)-2-(4-Chloro-2-ethoxy-5-methanesulfonyl-phenyl)-4,5-bis-(4-chloro-phenyl)-4,5-dimethyl-4,5-dihydro-imidazole-1-carbonyl]-3,9-diaza-spiro[5.5]undec-3-yl}-acetamide] were, in that order, 1490 nM and 5.8 nM.
In the same order, the values of `CCOc1cc(Cl)c(S(C)(=O)=O)cc1C1=N[C@@](C)(c2ccc(Cl)cc2)[C@@](C)(c2ccc(Cl)cc2)N1C(=O)N1CCC(CCCS(C)(=O)=O)CC1` [Example 22, [(4S,5R)-2-(4-Chloro-2-ethoxy-5-methanesulfonyl-phenyl)-4,5-bis-(4-chloro-phenyl)-4,5-dimethyl-4,5-dihydro-imidazol-1-yl]-[4-(3-methanesulfonyl-propyl)-piperidin-1-yl]-methanone] are 1350 nM and 4.6 nM.
With `CCOc1cc(Cl)c(S(C)(=O)=O)cc1C1=N[C@@](C)(c2ccc(Cl)cc2)[C@@](C)(c2ccc(Cl)cc2)N1C(=O)N1CCN(CC(=O)N(CCOC(C)C)CCOC(C)C)CC1` [Example 23, 2-{4-[(4S,5R)-2-(4-Chloro-2-ethoxy-5-methanesulfonyl-phenyl)-4,5-bis-(4-chloro-phenyl)-4,5-dimethyl-4,5-dihydro-imidazole-1-carbonyl]-piperazin-1-yl}-N,N-bis-(2-isopropoxy-ethyl)-acetamide], the IC50 in assay [1] is 1850 nM; in assay [2] it was 5.5 nM.
